Several values for one entry are separate records, joined by “and”; a condition that tells them apart may be missing. Equal entries are not always repeated.
Experiments:
MCF-7 cells = assay: MTT cytotoxicity assay, MCF-7; format: cell-based; settings: Homo sapiens, MCF7, 48 h, read-out: Cytotoxic IC50 MCF-7
Method: (§3) Using RPMI-1640 medium L-Glutamine (Lonza Verviers SPRL, Belgium, cat#12-604F), we successfully cultured liver (HepG2), breast (MCF-7), and lung (A549) cells bought from the National Research Institute, Egypt. Each culture was supplemented with 10% foetal bovine serum (FBS, Sigma-Aldrich, MO, USA) and 1% penicillin-streptomycin (Lonza, Belgium). Using a 96-well plate, cells were seeded at a density of 5,000 cells per well in triplicate. The chemicals were added to the cells on day 2 at doses of (0.01, 0.1, 1, 10, and 100 M). To determine cell viability, MTT solution was used after 48 h (Promega, USA)[84]. Using GraphPad Prism 7, as was previously reported in, we computed the survival rate in comparison to the control and obtained the IC50 values[85].

HepG2 cells [1] = assay: MTT cytotoxicity assay, HepG2; format: cell-based; settings: Homo sapiens, HepG2, 48 h, read-out: Cytotoxic IC50 HepG2
Method: as §3

A549 cells = assay: MTT cytotoxicity assay, A549; format: cell-based; settings: Homo sapiens, A549, 48 h, read-out: Cytotoxic IC50 A549
Method: as §3

Calfthymus DNA = assay: DNA intercalation assay (DNA/methyl green); format: binding, calf; settings: average of three independent replicates, five concentrations
Method: (§1) Topoisomerase II (TopoGEN, Inc., Columbus) and DNA intercalator (methyl green (20 mg) and Calfthymus DNA (10 mg) were tested for their capacity to block the enzyme’s activity. Following equation was used to determine compound inhibition percentages: 100−[A control/A treated−Control)], IC50 was determined using GraphPad prism7 using inhibition curves at five different concentrations of each compound[86].

Topoisomerase II = target: T1, Topoisomerase II (Homo sapiens, UniProt P11388); assay: Topoisomerase II inhibition assay; format: biochemical; settings: average of three independent replicates, five concentrations
T1 construct: purchased TopoGEN, Inc., Columbus
Method: as §1

HepG2 cells [2] = assay: Annexin V/PI staining flow cytometry (apoptosis); format: cell-based; settings: IC50 concentration, 48 h
Method: After incubation overnight, 6-well culture plates were populated with HepG2 cells (3–5 10^5 cells/well). […] Cells and medium supernatants were then collected and washed in ice-cold PBS. The next step was suspending the cells in 100 µL of annexin binding buffer solution "25 mM CaCl2, 1.4 M NaCl, and 0.1 M Hepes/NaOH, pH 7.4” and incubation with “Annexin V-FITC solution (1:100) and propidium iodide (PI)” at a concentration equals 10 µg/mL in the dark for 30 min. The Cytoflex FACS system was then used to acquire the stained cells. cytExpert was used for the statistical analysis.

HepG2 cells [3] = assay: DNA content flow cytometry cell cycle analysis; format: cell-based; settings: IC50 concentration, 48 h, control 39.15%
P53 = assay: RT-PCR gene expression, P53; format: cell-based; settings: HepG2 cells, IC50, 48 h; normalized to β-actin; untreated = 1
Method: (§2) The gene expression of P53, Bax, Caspasses-3,8,9 as proapoptotic genes and Bcl-2 as an anti-apoptotic gene were evaluated to investigate the apoptotic pathway. […] Afterwards, the standard operating procedure called for an RT-PCR reaction to be performed. The Ct values were then used to determine the relative expression of each gene in each sample, normalised to the β-actin as house-keeping gene[90–92].

Bax = assay: RT-PCR gene expression, Bax; format: cell-based; settings: HepG2 cells, IC50, 48 h; normalized to β-actin; untreated = 1
Method: as §2

Casp-3 = assay: RT-PCR gene expression, Casp-3; format: cell-based; settings: HepG2 cells, IC50, 48 h; normalized to β-actin; untreated = 1
Method: as §2

Casp-8 = assay: RT-PCR gene expression, Casp-8; format: cell-based; settings: HepG2 cells, IC50, 48 h; normalized to β-actin; untreated = 1
Method: as §2

Casp-9 = assay: RT-PCR gene expression, Casp-9; format: cell-based; settings: HepG2 cells, IC50, 48 h; normalized to β-actin; untreated = 1
Method: as §2

Bcl-2 = assay: RT-PCR gene expression, Bcl-2; format: cell-based; settings: HepG2 cells, IC50, 48 h; normalized to β-actin; untreated = 1
Method: as §2

[4] = MTT cytotoxicity assay, MCF-7; format: cell-based; settings: human, MCF-7 breast cells, read-out: Cytotoxic IC50 MCF-7
Method: as §3

[5] = MTT cytotoxicity assay, HepG2; format: cell-based; settings: human, HepG2 liver cells, read-out: Cytotoxic IC50 HepG2
Method: as §3

[6] = MTT cytotoxicity assay, A549; format: cell-based; settings: human, A549 lung cells, read-out: Cytotoxic IC50 A549
Method: as §3

T1 sequence (P11388 whole entry): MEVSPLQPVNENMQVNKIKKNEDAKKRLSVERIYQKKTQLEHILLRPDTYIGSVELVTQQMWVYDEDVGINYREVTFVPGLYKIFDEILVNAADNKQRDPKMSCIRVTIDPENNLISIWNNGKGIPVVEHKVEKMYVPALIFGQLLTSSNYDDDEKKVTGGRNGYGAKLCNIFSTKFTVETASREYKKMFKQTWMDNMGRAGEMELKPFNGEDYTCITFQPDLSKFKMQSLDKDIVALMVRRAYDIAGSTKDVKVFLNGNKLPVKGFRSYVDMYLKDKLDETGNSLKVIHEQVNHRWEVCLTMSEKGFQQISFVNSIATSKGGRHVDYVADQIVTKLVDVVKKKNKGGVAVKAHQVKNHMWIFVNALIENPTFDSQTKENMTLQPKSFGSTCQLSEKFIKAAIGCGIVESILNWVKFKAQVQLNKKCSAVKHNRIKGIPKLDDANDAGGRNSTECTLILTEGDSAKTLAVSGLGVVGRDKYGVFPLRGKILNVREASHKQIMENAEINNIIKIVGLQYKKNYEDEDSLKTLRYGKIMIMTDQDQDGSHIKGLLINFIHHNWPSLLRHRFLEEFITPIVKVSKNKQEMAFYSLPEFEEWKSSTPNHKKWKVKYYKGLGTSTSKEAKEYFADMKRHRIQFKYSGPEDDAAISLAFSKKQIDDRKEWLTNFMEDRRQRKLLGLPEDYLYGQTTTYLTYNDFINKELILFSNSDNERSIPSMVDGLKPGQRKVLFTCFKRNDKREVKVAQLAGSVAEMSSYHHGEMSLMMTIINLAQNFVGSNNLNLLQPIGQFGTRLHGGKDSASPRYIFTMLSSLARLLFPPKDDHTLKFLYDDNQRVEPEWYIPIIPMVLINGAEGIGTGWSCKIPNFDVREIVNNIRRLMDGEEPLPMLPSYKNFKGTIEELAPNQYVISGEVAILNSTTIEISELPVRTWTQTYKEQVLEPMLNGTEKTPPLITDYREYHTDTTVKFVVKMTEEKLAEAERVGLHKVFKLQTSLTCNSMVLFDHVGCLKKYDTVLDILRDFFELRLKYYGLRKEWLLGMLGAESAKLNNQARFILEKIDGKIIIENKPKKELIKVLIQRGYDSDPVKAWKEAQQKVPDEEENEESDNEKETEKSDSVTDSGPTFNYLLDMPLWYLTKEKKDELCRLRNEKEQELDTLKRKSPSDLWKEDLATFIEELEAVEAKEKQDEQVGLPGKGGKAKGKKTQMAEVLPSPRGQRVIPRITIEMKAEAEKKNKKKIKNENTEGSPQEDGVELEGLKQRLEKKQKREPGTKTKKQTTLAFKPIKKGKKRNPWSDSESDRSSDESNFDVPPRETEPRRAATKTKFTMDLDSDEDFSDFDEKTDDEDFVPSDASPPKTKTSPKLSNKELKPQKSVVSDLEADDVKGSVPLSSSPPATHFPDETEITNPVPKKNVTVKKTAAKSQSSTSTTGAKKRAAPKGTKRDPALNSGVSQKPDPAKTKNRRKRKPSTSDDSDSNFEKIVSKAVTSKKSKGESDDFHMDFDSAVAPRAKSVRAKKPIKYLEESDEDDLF

Structure (SMILES) | IC50 (MCF-7 cells) | IC50 (HepG2 cells [1]) | IC50 (A549 cells) | melting point | also measured
O=C1NC(=S)S/C1=C\c1ccc(Cl)cc1Cl [Compound 3b, 5-((Z)-2,4-dichlorobenzylidene)-2-thioxo-4-thiazolidinone] | 17.9 µM | 7.8 µM | 9.7 µM |  | 
COc1cccc2c1C(=O)c1c(O)c3c(c(O)c1C2=O)C[C@@](O)(C(=O)CO)C[C@@H]3O[C@H]1C[C@H](N)[C@H](O)[C@H](C)O1 [Doxorubicin, reference compound] | 7.67 µM |  | 6.62 µM |  | IC50 (Calfthymus DNA): 31.3 µM
CC(=O)OC[C@H]1O[C@@H](N2C(=O)CSC2=S)[C@H](OC(C)=O)[C@@H](OC(C)=O)[C@@H]1OC(C)=O [Compound 6, 3-(2',3',4',6'-Tetra-O-acetyl-β-D-glucopyranosyl)-2-thioxo-4-thiazolidinone] | 11.7 µM | 0.21 µM | 1.7 µM |  | IC50 (Topoisomerase II): 6.9 µM; IC50 (Calfthymus DNA): 19.6 µM; Activation of apoptotic cell death versus untreated control (HepG2 cells [2]): 80.7 fold; Early apoptosis (AV+/PI-) (HepG2 cells [2]): 23.07%; Late apoptosis (AV+/PI+) (HepG2 cells [2]): 11.66%; Total apoptosis (HepG2 cells [2]; untreated control 0.43%): 34.73%; Cell population at S-phase (HepG2 cells [3]): 49.6%; Fold Change = 2^-ΔΔCT P53 (P53): 6.16 fold and 6.16 ± 0.69 fold; Fold Change = 2^-ΔΔCT Bax (Bax): 5.7 fold and 5.7 ± 0.26 fold; Fold Change = 2^-ΔΔCT Casp-3 (Casp-3): 8.3 fold and 8.3 ± 0.37 fold; Fold Change = 2^-ΔΔCT Casp-8 (Casp-8): 3.29 fold and 3.29 ± 0.5 fold; Fold Change = 2^-ΔΔCT Casp-9 (Casp-9): 6.14 fold and 6.14 ± 0.19 fold; Fold Change = 2^-ΔΔCT Bcl-2 (Bcl-2): 0.36 fold and 0.36 ± 0.01 fold
O=C1NC(=O)/C(=C/c2ccc(Cl)cc2Cl)S1 [Compound 14, 5-((Z)-2,4-dichlorobenzylidene)-2,4-thiazolidindione] | 42.2 µM | 37.3 µM | 31.6 µM |  | 
CSC1NC(=O)CS1 (stereo not shown) [Compound 11, 2-methylmercapto-4-thiazolidinone] |  |  |  | 72 to 74 °C | 
CC(=O)OC[C@H]1O[C@@H](SC2=NC(=O)CS2)[C@H](OC(C)=O)[C@@H](OC(C)=O)[C@@H]1OC(C)=O [Compound 7] |  |  |  |  | IC50 at 48 h [4]: 12.4 µM; IC50 at 48 h [5]: 0.76 µM; IC50 at 48 h [6]: 0.31 µM; IC50 (Topoisomerase II): 9.1 µM; IC50 (Calfthymus DNA): 29.6 µM
CC(=O)OCC1OC(SC2=NC(=O)C(=Cc3ccc(Cl)cc3Cl)S2)C(OC(C)=O)C(OC(C)=O)C1OC(C)=O [Compound 13b, 5-((Z)-2,4-dichlorobenzylidene)-2–(2',3',4',6'-tetra-O-acetyl-β-D-glucopyranosyl)-2-thioxo-4-thiazolidinone] | 13.1 µM | 7.2 µM | 10.1 µM | 167 to 169 °C | 
O=C1NC(=S)S/C1=C\c1ccc2c(c1)OCO2 [Compound 3f, 5-((Z)-3,4-methylenedioxybenzylidene)-2-thioxo-4-thiazolidinone] | 12.8 µM | 8.9 µM | 21.1 µM |  | 
COc1cccc(/C=C2\SC(=S)NC2=O)c1O [Compound 3e] | 3.1 µM | 16.3 µM | 7.7 µM | 199 to 201 °C | 
CC(=O)OCC1OC(SC2=NC(=O)C(=Cc3ccccc3)S2)C(OC(C)=O)C(OC(C)=O)C1OC(C)=O [Compound 13a, 5-((Z)-benzylidene)-2–(2',3',4',6'-tetra-O-acetyl-β-D-glucopyranosyl)-2-thioxo-4-thiazolidinone] | 3.1 µM | 17.2 µM | 6.1 µM | 166 to 168 °C | IC50 (Topoisomerase II): 8.3 µM; IC50 (Calfthymus DNA): 22.6 µM
O=C1CSC(=S)N1CN1CCOCC1 [Compound 10, 3-morpholinomethyl-2-thioxo-4-thiazolidinone] |  |  | 36.4 µM |  | 
CC(=O)OC[C@H]1O[C@@H](SC2=NC(=O)/C(=C/c3ccc4c(c3)OCCO4)S2)[C@H](OC(C)=O)[C@@H](OC(C)=O)[C@@H]1OC(C)=O [Compound 13c, 5-((Z)-2,4-ethylenedioxybenzylidene)-2–(2',3',4',6'-tetra-O-acetyl-β-D-glucopyranosyl)-2-thioxo-4-thiazolidinone] |  | 21.2 µM | 4.1 µM |  | 
COc1ccc(/C=C2\SC(=S)NC2=O)cc1 [Compound 3d, 5-((Z)-4-methoxybenzylidene)-2-thioxo-4-thiazolidinone] | 15.1 µM | 18.1 µM | 7.8 µM |  | 
O=C1NC(=S)S/C1=C\c1ccc2c(c1)OCCO2 [Compound 3c, 5-((Z)-3,4-ethylenedioxybenzylidene)-2-thioxo-4-thiazolidinone] | 7.1 µM | 11.7 µM | 13.7 µM | 208 to 210 °C | 

Reference: publication PMC9848385, “Design, synthesis, molecular modelling and antitumor evaluation of S-glucosylated rhodanines through topo II inhibition and DNA intercalation” (Journal of Enzyme Inhibition and Medicinal Chemistry, 2023)
